The target of this assay is α7 nAChR subtype (Rattus norvegicus, UniProt Q05941). Type of assay: binding. Particulars: read-out: KD (saturation curve, one site model).
α7 nAChR subtype, sequence (Q05941 23-502 limits assumed): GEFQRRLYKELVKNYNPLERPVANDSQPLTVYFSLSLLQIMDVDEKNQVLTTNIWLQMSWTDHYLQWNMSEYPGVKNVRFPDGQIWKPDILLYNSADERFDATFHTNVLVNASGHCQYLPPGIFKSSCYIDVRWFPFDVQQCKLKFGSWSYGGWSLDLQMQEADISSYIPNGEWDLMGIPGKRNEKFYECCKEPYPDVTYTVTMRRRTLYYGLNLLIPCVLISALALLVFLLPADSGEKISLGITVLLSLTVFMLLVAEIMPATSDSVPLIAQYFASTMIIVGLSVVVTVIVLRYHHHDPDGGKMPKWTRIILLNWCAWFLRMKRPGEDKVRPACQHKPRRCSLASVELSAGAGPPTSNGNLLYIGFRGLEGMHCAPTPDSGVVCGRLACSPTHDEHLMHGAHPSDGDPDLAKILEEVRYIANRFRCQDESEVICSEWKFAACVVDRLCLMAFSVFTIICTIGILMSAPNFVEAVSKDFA

For [^125I]-α-Bungarotoxin [^125I-α-BTX], the Kd is 1.67 nM.

Values taken from patent US7982038B2 (priority 2003, dated 2011).
